The supplement of paper PMC11451515

System: SEM cells
Assay: cell viability relative to DMSO control; higher = less cytotoxic
Settings: 48 h
Summary of the method: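 In 1536-well plates, 5 μl of leukemia cells were seeded per well: 500 cells/well for NOMO1 or SEM and 1000 cells/well for P12-Ichikawa. Each line had first been adapted for at least four passages in each medium. Library compounds in DMSO were pin-dosed at 11 threefold concentrations between 47 μM and 0.79 nM, and CellTiter-Glo One luminescence was read after 48 h at 37°C. Viability is a per-plate percentage relative to DMSO wells, with cell-free wells as background.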

[1] = HPLM + 10% dialyzed FBS, 0.000781 µM
[2] = HPLM + 10% dialyzed FBS, 0.00234 µM
[3] = HPLM + 10% dialyzed FBS, 0.00702 µM
[4] = HPLM + 10% dialyzed FBS, 0.0211 µM
[5] = HPLM + 10% dialyzed FBS, 0.0632 µM
[6] = HPLM + 10% dialyzed FBS, 0.19 µM
[7] = HPLM + 10% dialyzed FBS, 0.569 µM
[8] = HPLM + 10% dialyzed FBS, 1.71 µM
[9] = HPLM + 10% dialyzed FBS, 5.12 µM
[10] = HPLM + 10% dialyzed FBS, 15.4 µM
[11] = HPLM + 10% dialyzed FBS, 46.1 µM
[12] = RPMI 5 mM glucose + 10% FBS, 0.000781 µM
[13] = RPMI 5 mM glucose + 10% FBS, 0.00234 µM
[14] = RPMI 5 mM glucose + 10% FBS, 0.00702 µM
[15] = RPMI 5 mM glucose + 10% FBS, 0.0211 µM
[16] = RPMI 5 mM glucose + 10% FBS, 0.0632 µM
[17] = RPMI 5 mM glucose + 10% FBS, 0.19 µM
[18] = RPMI 5 mM glucose + 10% FBS, 0.569 µM
[19] = RPMI 5 mM glucose + 10% FBS, 1.71 µM
[20] = RPMI 5 mM glucose + 10% FBS, 5.12 µM
[21] = RPMI 5 mM glucose + 10% FBS, 15.4 µM
[22] = RPMI 5 mM glucose + 10% FBS, 46.1 µM
[23] = RPMI 5 mM glucose + 10% dialyzed FBS, 0.000781 µM
[24] = RPMI 5 mM glucose + 10% dialyzed FBS, 0.00234 µM
[25] = RPMI 5 mM glucose + 10% dialyzed FBS, 0.00702 µM
[26] = RPMI 5 mM glucose + 10% dialyzed FBS, 0.0211 µM
[27] = RPMI 5 mM glucose + 10% dialyzed FBS, 0.0632 µM
[28] = RPMI 5 mM glucose + 10% dialyzed FBS, 0.19 µM
[29] = RPMI 5 mM glucose + 10% dialyzed FBS, 0.569 µM
[30] = RPMI 5 mM glucose + 10% dialyzed FBS, 1.71 µM
[31] = RPMI 5 mM glucose + 10% dialyzed FBS, 5.12 µM
[32] = RPMI 5 mM glucose + 10% dialyzed FBS, 15.4 µM
[33] = RPMI 5 mM glucose + 10% dialyzed FBS, 46.1 µM

Compound | cell viability [1] | cell viability [2] | cell viability [3] | cell viability [4] | cell viability [5] | cell viability [6] | cell viability [7] | cell viability [8] | cell viability [9] | cell viability [10] | cell viability [11] | cell viability [12] | cell viability [13] | cell viability [14] | cell viability [15] | cell viability [16] | cell viability [17] | cell viability [18] | cell viability [19] | cell viability [20] | cell viability [21] | cell viability [22] | cell viability [23] | cell viability [24] | cell viability [25] | cell viability [26] | cell viability [27] | cell viability [28] | cell viability [29] | cell viability [30] | cell viability [31] | cell viability [32] | cell viability [33]
CC1(C)CNc2cc(NC(=O)c3cccnc3NCc3ccncc3)ccc21 | 118% | 118% | 121% | 112% | 102% | 104% | 92.4% | 101% | 96.3% | 93% | 13.2% | 85.4% | 70.9% | 87.7% | 79.4% | 79.7% | 79.4% | 73.9% | 75.4% | 78.1% | 70.1% | 12.9% | 111% | 112% | 105% | 128% | 125% | 100% | 102% | 91.1% | 79.2% | 90.6% | 7.67%
Cc1cc(Nc2nc(N[C@@H](C)c3ccc(F)cc3)c(C#N)cc2F)n[nH]1 | 120% | 106% | 114% | 110% | 101% | 95% | 99.1% | 88.7% | 23.4% | 15% | 7.41% | 112% | 104% | 111% | 112% | 107% | 112% | 103% | 93.4% | 24.1% | 13.3% | 6.68% | 104% | 100% | 106% | 105% | 93.9% | 101% | 100% | 76.9% | 23.9% | 16.7% | 6.42%
CC[C@H](NC(=O)[C@H](C)NC)C(=O)N1C[C@@H](O)C[C@H]1Cc1c(-c2[nH]c3cc(F)ccc3c2C[C@@H]2C[C@H](O)CN2C(=O)[C@H](CC)NC(=O)[C@H](C)NC)[nH]c2cc(F)ccc12 | 90.7% | 122% | 116% | 116% | 136% | 134% | 129% | 134% | 112% | 119% | 88.2% |  |  |  |  |  |  |  |  |  |  |  |  |  |  |  |  |  |  |  |  |  | 
NCCCCNCCCN | 74.8% | 80.2% | 75.4% | 89.7% | 97.8% | 99.5% | 87.6% | 99.2% | 101% | 19.7% | 3.89% | 107% | 73.5% | 97% | 93.9% | 108% | 110% | 99.1% | 106% | 106% | 43.5% | 4.26% | 88% | 83.7% | 94.2% | 75.6% | 106% | 103% | 93.7% | 99.4% | 91.9% | 21.4% | 4.65%
Cn1cc(/C=C2\C(=O)Nc3cccnc32)c2ccccc21 | 90.8% | 104% | 113% | 117% | 125% | 121% | 115% | 111% | 112% | 44.8% | 30% | 92.5% | 92.5% | 122% | 114% | 99.3% | 105% | 108% | 115% | 98.4% | 31.8% | 21.9% | 105% | 106% | 124% | 101% | 122% | 119% | 114% | 119% | 91.7% | 30.2% | 28%
CN[C@@H](C)C(=O)N[C@H]1CN(C(=O)CC(C)C)CC[C@H]2CC[C@@H](C(=O)NC(c3ccccc3)c3ccccc3)N2C1=O | 76.3% | 90.5% | 98.3% | 100% | 98.1% | 93.7% | 99% | 103% | 99.9% | 71.4% | 41% | 107% | 103% | 105% | 110% | 104% | 102% | 96.7% | 83.5% | 74.2% | 56.5% | 38.5% | 95.5% | 86.1% | 92.8% | 104% | 106% | 97.9% | 102% | 95.1% | 77.7% | 61% | 36.2%
C/C(O)=C(\C#N)C(=O)Nc1cc(Br)ccc1Br | 108% | 102% | 112% | 107% | 112% | 110% | 107% | 109% | 108% | 32.2% | 75.4% | 122% | 104% | 104% | 106% | 119% | 112% | 99% | 113% | 106% | 32.8% | 84.9% | 112% | 110% | 108% | 118% | 107% | 108% | 105% | 111% | 99% | 32% | 70.5%
Nc1ncnc2ccccc12 | 83.3% | 87.9% | 93.9% | 18.9% | 97% | 97.1% | 109% | 91.5% | 90.5% | 93.4% | 99.5% | 97.9% | 98.7% | 118% | 13.2% | 123% | 102% | 96.9% | 123% | 99.1% | 122% | 107% | 73.9% | 76.3% | 89.6% | 16.7% | 94.4% | 86.2% | 101% | 98.6% | 91.4% | 97.6% | 99.6%
CC(/C=C/C(=O)NO)=C\[C@@H](C)C(=O)c1ccc(N(C)C)cc1 | 108% | 126% | 109% | 100% | 111% | 101% | 59% | 8.01% | 3.01% | 2.86% | 2.07% | 112% | 117% | 115% | 97.7% | 115% | 115% | 66.2% | 5.17% | 3.1% | 2.52% | 1.53% | 102% | 112% | 116% | 105% | 106% | 102% | 56.2% | 8.19% | 3.94% | 3.72% | 1.86%
C[S+](=O)([O-])c1cccc(CNc2nc(Nc3ccc4c(c3)CCC(=O)N4)ncc2C(F)(F)F)c1 |  |  |  |  |  |  |  |  |  |  |  | 112% | 126% | 119% | 127% | 105% | 125% | 109% | 71.5% | 63.1% | 30.6% | 8.79% | 111% | 114% | 98.4% | 110% | 101% | 94.9% | 87.3% | 74.4% | 49.9% | 20.5% | 4.38%
CN1CCC[C@@H]1CCO[C@](C)(c1ccccc1)c1ccc(Cl)cc1 | 85.8% | 96.5% | 102% | 104% | 122% | 108% | 99.1% | 115% | 111% | 104% | 81.4% | 103% | 116% | 118% | 117% | 115% | 115% | 112% | 114% | 124% | 118% | 97.4% | 86.1% | 110% | 107% | 104% | 114% | 121% | 109% | 116% | 115% | 118% | 93%
COc1ccc2c(c1)c(CC(=O)OCC(=O)O)c(C)n2C(=O)c1ccc(Cl)cc1 | 109% | 114% | 111% | 110% | 112% | 110% | 119% | 102% | 113% | 109% | 106% | 121% | 126% | 121% | 120% | 113% | 111% | 109% | 99.8% | 113% | 98.4% | 102% | 119% | 131% | 123% | 123% | 116% | 116% | 128% | 110% | 112% | 113% | 100%
CC(C)c1cc(C(=O)N2Cc3ccc(CN4CCN(C)CC4)cc3C2)c(O)cc1O |  |  |  |  |  |  |  |  |  |  |  | 104% | 105% | 107% | 17.8% | 112% | 107% | 31.1% | 23.5% | 21.5% | 23.1% | 18.3% | 125% | 120% | 120% | 20.5% | 106% | 99.9% | 47.2% | 32.4% | 29.8% | 28.8% | 25.9%
COc1cc2nc(-c3cc(F)ccc3O)nc(N[C@@H]3CNC[C@H]3C(C)(C)O)c2cc1OC | 57.3% | 96.4% | 90.5% | 97.4% | 89.5% | 59.6% | 45.6% | 37.2% | 28.3% | 16.1% | 7.01% | 59.9% | 101% | 99.6% | 94.6% | 90.4% | 62.3% | 54.6% | 35.7% | 25.6% | 14.5% | 5.78% | 46.9% | 94.4% | 80.5% | 86.5% | 64% | 45.2% | 34.6% | 30.6% | 15.8% | 14.3% | 6.75%
NC(=O)C1CCCc2c1[nH]c1ccc(Cl)cc21 (centres undefined) | 115% | 120% | 129% | 125% | 119% | 141% | 126% | 64.8% | 27.4% | 3.88% | 1.72% | 119% | 122% | 134% | 133% | 126% | 118% | 140% | 115% | 63.3% | 5.97% | 1.78% | 109% | 107% | 109% | 108% | 111% | 126% | 108% | 76.8% | 47.4% | 6.13% | 2.95%
C[C@]12CC[C@H]3[C@@H](CCC/4=C/C(=O)CC[C@]34C)[C@@H]1CC[C@@H]2O | 94.2% | 120% | 124% | 128% | 118% | 139% | 122% | 120% | 136% | 125% | 130% | 107% | 110% | 118% | 112% | 139% | 129% | 118% | 133% | 140% | 157% | 109% | 129% | 113% | 120% | 121% | 112% | 130% | 153% | 134% | 130% | 131% | 145%
